Laboratory results taken from ChEMBL document CHEMBL1135318 (Bioorg Med Chem Lett, 2002).

Legend:
[1] = target: T1, Muscarinic acetylcholine receptor M2 (Homo sapiens, UniProt P08172); assay: In vitro affinity for muscarinic M2 receptor.
T1 sequence (P08172 whole entry): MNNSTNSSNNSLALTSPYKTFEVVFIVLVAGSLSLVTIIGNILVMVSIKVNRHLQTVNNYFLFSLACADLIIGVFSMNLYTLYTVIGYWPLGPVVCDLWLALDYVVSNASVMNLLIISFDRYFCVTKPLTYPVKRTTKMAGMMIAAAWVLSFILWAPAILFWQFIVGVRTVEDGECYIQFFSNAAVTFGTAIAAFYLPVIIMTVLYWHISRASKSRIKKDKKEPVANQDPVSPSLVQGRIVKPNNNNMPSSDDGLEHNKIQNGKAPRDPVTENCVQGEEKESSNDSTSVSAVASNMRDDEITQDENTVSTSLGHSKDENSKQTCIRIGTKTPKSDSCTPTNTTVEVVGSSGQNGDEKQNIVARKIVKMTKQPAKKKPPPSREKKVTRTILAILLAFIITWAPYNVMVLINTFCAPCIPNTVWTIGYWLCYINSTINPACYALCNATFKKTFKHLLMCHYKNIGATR

[2] = target: T2, Muscarinic acetylcholine receptor M3 (Homo sapiens, UniProt P20309); assay: In vitro affinity for muscarinic M3 receptor.
Target sequence in this assay (P20309 whole entry): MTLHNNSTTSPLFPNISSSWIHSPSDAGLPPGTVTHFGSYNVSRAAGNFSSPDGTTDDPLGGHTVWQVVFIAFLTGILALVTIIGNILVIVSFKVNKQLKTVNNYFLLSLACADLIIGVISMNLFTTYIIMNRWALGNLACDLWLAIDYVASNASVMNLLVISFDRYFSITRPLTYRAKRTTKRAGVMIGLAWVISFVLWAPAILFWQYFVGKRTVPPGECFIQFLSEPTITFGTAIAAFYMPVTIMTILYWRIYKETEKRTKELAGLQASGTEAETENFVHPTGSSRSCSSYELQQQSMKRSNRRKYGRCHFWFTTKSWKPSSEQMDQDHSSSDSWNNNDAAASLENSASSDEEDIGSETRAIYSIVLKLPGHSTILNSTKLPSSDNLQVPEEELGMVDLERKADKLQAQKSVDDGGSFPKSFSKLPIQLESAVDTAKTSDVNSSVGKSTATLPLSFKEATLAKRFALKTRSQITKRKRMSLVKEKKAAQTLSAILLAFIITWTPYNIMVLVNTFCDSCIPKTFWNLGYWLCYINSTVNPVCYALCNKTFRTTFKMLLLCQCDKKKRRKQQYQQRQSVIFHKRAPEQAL

[3] = target: T2, Muscarinic acetylcholine receptor M3; assay: Displacement of [3H]N-methylscopolamine from membrane preparation from CHO-K1 cells for Muscarinic acetylcholine receptor M3; value given as 20-50%; format: cell membranes; conditions: concentration not given here
Target sequence in this assay (P20309 whole entry, looked up): as the sequence (P20309 whole entry) above

[4] = target: T3, Muscarinic acetylcholine receptor M2 (Homo sapiens) (UniProt P08172); assay: Displacement of [3H]N-methylscopolamine from membrane preparation from CHO-K1 cells for Muscarinic acetylcholine receptor M2; value given as 20-50%; format: cell membranes; conditions: concentration not given here
T3 sequence (whole entry): T1 sequence (P08172 whole entry)

[5] = target: T2, Muscarinic acetylcholine receptor M3; assay: Displacement of [3H]N-methylscopolamine from membrane preparation from CHO-K1 cells for Muscarinic acetylcholine receptor M3; format: cell membranes; conditions: concentration not given here
Target sequence in this assay (P20309 whole entry, looked up): as the sequence (P20309 whole entry) above

[6] = target: T3, Muscarinic acetylcholine receptor M2 (Homo sapiens); assay: Displacement of [3H]N-methylscopolamine from membrane preparation from CHO-K1 cells for Muscarinic acetylcholine receptor M2; format: cell membranes; conditions: concentration not given here

O=C(c1ccccc1)N(Cc1ccccc1)C1CCN(Cc2ccccc2)CC1
Ki [1]: 631 nM | Ki [2]: 158 nM

O=C(c1ccccc1)N(C1CCC1)C1CCN(Cc2ccccc2)CC1
inhibition [3]: 20% | inhibition [4]: 20%

O=C(c1cccs1)N(C1CCC1)C1CCN(Cc2ccccc2)CC1
inhibition [5]: < 20% | inhibition [6]: < 20%
